Experimental data reported in ChEMBL document CHEMBL3352218, “Structural basis for inhibition of mycobacterial and human adenosine kinase by 7-substituted 7-(Het)aryl-7-deazaadenine ribonucleosides” (J Med Chem, 2014).
In brackets after ≈: the same amount, converted by molar mass.

Tested on: Mycobacterium tuberculosis
Experiment: Antimycobacterial activity against multidrug resistant Mycobacterium tuberculosis Praha 131 assessed as microbial growth inhibition incubated for 14 days
Type: functional
Settings: Praha 131, 336 h

| Compound | MIC |
| --- | --- |
| Nc1ncnc2c1c(-c1cccc3ccccc13)cn2[C@@H]1O[C@H](CO)[C@@H](O)[C@H]1O | 32 µM (≈ 12.6 µg/mL) |
| Nc1ncnc2c1c(-c1ccc3ccccc3c1)cn2[C@@H]1O[C@H](CO)[C@@H](O)[C@H]1O | 4 µM (≈ 1.57 µg/mL) |
| Nc1ncnc2c1c(-c1ccccc1)cn2[C@@H]1O[C@H](CO)[C@@H](O)[C@H]1O | 8 µM (≈ 2.74 µg/mL) |
| Nc1ncnc2c1c(-c1ccc(-c3ccc4ccccc4c3)cc1)cn2[C@@H]1O[C@H](CO)[C@@H](O)[C@H]1O | 62.5 µM (≈ 29.3 µg/mL) |
| Nc1ncnc2c1c(/C=C/c1ccccc1)cn2[C@@H]1O[C@H](CO)[C@@H](O)[C@H]1O | 8 µM (≈ 2.95 µg/mL) |
| Nc1ncnc2c1c(-c1cccs1)cn2[C@@H]1O[C@H](CO)[C@@H](O)[C@H]1O | 8 µM (≈ 2.79 µg/mL) |
| Nc1ncnc2c1c(-c1ncc[nH]1)cn2[C@@H]1O[C@H](CO)[C@@H](O)[C@H]1O | > 250 µM |
| Cc1ccc(-c2cn([C@@H]3O[C@H](CO)[C@@H](O)[C@H]3O)c3ncnc(N)c23)cc1C | 8 µM (≈ 2.96 µg/mL) |
| Nc1ncnc2c1c(-c1cc3ccccc3o1)cn2[C@@H]1O[C@H](CO)[C@@H](O)[C@H]1O | 16 µM (≈ 6.12 µg/mL) |
| COc1cc(-c2cn([C@@H]3O[C@H](CO)[C@@H](O)[C@H]3O)c3ncnc(N)c23)cc(OC)c1OC | 8 µM (≈ 3.46 µg/mL) |
| CSc1ccc(-c2cn([C@@H]3O[C@H](CO)[C@@H](O)[C@H]3O)c3ncnc(N)c23)cc1 | 8 µM (≈ 3.11 µg/mL) |
| Nc1ncnc2c1c(-c1cc3ccccc3c3ccccc13)cn2[C@@H]1O[C@H](CO)[C@@H](O)[C@H]1O | 32 µM (≈ 14.2 µg/mL) |
| Nc1ncnc2c1c(-c1ccc(C(F)(F)F)cc1)cn2[C@@H]1O[C@H](CO)[C@@H](O)[C@H]1O | 4 µM (≈ 1.64 µg/mL) |
| CC(C)c1ccc(-c2cn([C@@H]3O[C@H](CO)[C@@H](O)[C@H]3O)c3ncnc(N)c23)cc1 | 16 µM (≈ 6.15 µg/mL) |
| Nc1ncnc2c1c(-c1nccs1)cn2[C@@H]1O[C@H](CO)[C@@H](O)[C@H]1O | 125 µM (≈ 43.7 µg/mL) |
| Nc1ncnc2c1c(-c1ccc3c(c1)OCO3)cn2[C@@H]1O[C@H](CO)[C@@H](O)[C@H]1O | 8 µM (≈ 3.09 µg/mL) |
| COc1ccc(-c2cn([C@@H]3O[C@H](CO)[C@@H](O)[C@H]3O)c3ncnc(N)c23)cc1 | 16 µM (≈ 5.96 µg/mL) |
| Nc1ncnc2c1c(-c1cc[nH]c1)cn2[C@@H]1O[C@H](CO)[C@@H](O)[C@H]1O | 62.5 µM (≈ 20.7 µg/mL) |

| Compound | MIC |
| --- | --- |
| Nc1ncnc2c1c(-c1cccc3c1Sc1ccccc1S3)cn2[C@@H]1O[C@H](CO)[C@@H](O)[C@H]1O | 125 µM (≈ 60.1 µg/mL) |
| CC(C)Oc1ccc(-c2cn([C@@H]3O[C@H](CO)[C@@H](O)[C@H]3O)c3ncnc(N)c23)cc1 | 32 µM (≈ 12.8 µg/mL) |
| Nc1ncnc2c1c(-c1cc[nH]n1)cn2[C@@H]1O[C@H](CO)[C@@H](O)[C@H]1O | > 250 µM |
| Nc1ncnc2c1c(-c1cccc3c1Oc1ccccc1S3)cn2[C@@H]1O[C@H](CO)[C@@H](O)[C@H]1O | 16 µM (≈ 7.43 µg/mL) |
| Nc1ncnc2c1c(-c1ccsc1)cn2[C@@H]1O[C@H](CO)[C@@H](O)[C@H]1O | 8 µM (≈ 2.79 µg/mL) |
| Nc1ncnc2c1c(-c1cccc3c1oc1ccccc13)cn2[C@@H]1O[C@H](CO)[C@@H](O)[C@H]1O | 4 µM (≈ 1.73 µg/mL) |
| Nc1ncnc2c1c(-c1ccc[nH]1)cn2[C@@H]1O[C@H](CO)[C@@H](O)[C@H]1O | 62.5 µM (≈ 20.7 µg/mL) |
| Nc1ncnc2c1c(-c1ccoc1)cn2[C@@H]1O[C@H](CO)[C@@H](O)[C@H]1O | 16 µM (≈ 5.32 µg/mL) |
| C#Cc1cn([C@@H]2O[C@H](CO)[C@@H](O)[C@H]2O)c2ncnc(N)c12 | 8 µM (≈ 2.32 µg/mL) |
| Nc1ncnc2c1c(-c1ccco1)cn2[C@@H]1O[C@H](CO)[C@@H](O)[C@H]1O | 62.5 µM (≈ 20.8 µg/mL) |
| CC(C)(C)c1ccc(-c2cn([C@@H]3O[C@H](CO)[C@@H](O)[C@H]3O)c3ncnc(N)c23)cc1 | 62.5 µM (≈ 24.9 µg/mL) |
| CC(C)c1cccc(-c2cn([C@@H]3O[C@H](CO)[C@@H](O)[C@H]3O)c3ncnc(N)c23)c1 | 32 µM (≈ 12.3 µg/mL) |
| Nc1ncnc2c1c(-c1c[nH]nn1)cn2[C@@H]1O[C@H](CO)[C@@H](O)[C@H]1O | > 250 µM |
| Nc1ncnc2c1c(-c1ccc(-c3ccccc3)cc1)cn2[C@@H]1O[C@H](CO)[C@@H](O)[C@H]1O | 4 µM (≈ 1.67 µg/mL) |
| Nc1ncnc2c1c(-c1ccc(COc3cccc4ccccc34)cc1)cn2[C@@H]1O[C@H](CO)[C@@H](O)[C@H]1O | 32 µM (≈ 16 µg/mL) |
| Nc1ncnc2c1c(-c1cn[nH]c1)cn2[C@@H]1O[C@H](CO)[C@@H](O)[C@H]1O | 125 µM (≈ 41.5 µg/mL) |
| Nc1ncnc2c1c(-c1c[nH]cn1)cn2[C@@H]1O[C@H](CO)[C@@H](O)[C@H]1O | > 250 µM |
| Nc1ncnc2c1c(-c1ccc3c4c(cccc14)CC3)cn2[C@@H]1O[C@H](CO)[C@@H](O)[C@H]1O | 16 µM (≈ 6.7 µg/mL) |
